Experimental findings from patent US10035790B2, “RORγ modulators” (BRISTOL-MYERS SQUIBB COMPANY, priority 2012, dated 2018) are described below.

Molecules are shown by their SMILES. pIC50: −log10 of the molar value.

The experiment deals with T1, ligand binding domain of human RORγ (A262-S507) (Homo sapiens, UniProt P51449).
T1 construct: made in house; host or cells: E. coli
T1 sequence (P51449 262-507): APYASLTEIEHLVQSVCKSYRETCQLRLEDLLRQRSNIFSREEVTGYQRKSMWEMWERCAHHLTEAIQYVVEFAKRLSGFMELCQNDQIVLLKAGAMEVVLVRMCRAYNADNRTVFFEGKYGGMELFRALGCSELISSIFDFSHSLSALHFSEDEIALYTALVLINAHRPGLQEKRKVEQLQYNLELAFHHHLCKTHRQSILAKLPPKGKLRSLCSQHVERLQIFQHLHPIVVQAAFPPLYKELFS
Put plainly: General RORγ SPA binding assay (competition with [3H]25-hydroxycholesterol). The conditions noted are these: RORγ SPA binding assay, inhibition of [3H]25-hydroxycholesterol binding; read-out: IC50. The essentials: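 Step one: compound meets 50 nM nickel-purified, His-tagged protein from E. coli for 15 min at room temperature (PBS, 0.5% fatty acid free BSA). Step two: radioligand is added for another 15 min. Step three: SPA beads are added for 30 min before scintillation reading and IC50 fitting.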
With `Cc1nc(C)c(-c2nnc(-c3ccnc(C(F)(F)F)n3)o2)c(C2CCN(C(=O)Nc3ccccc3Cl)CC2)n1` [Compound C29, N-(2-chlorophenyl)-4-(2,6-dimethyl-5-{5-[2-(trifluoromethyl)pyrimidin-4-yl]-1,3,4-oxadiazol-2-yl}pyrimidin-4-yl)piperidine-1-carboxamide], the pIC50 was 6.80.

As for `Cc1cc(C)cc(CNC(=O)c2c(C3CCN(C(=O)Cc4c(F)cccc4F)CC3)nc(C)nc2C(F)(F)F)c1` [Compound A112, 4-(1-(2-(2,6-Difluorophenyl)acetyl)piperidin-4-yl)-N-(3,5-dimethylbenzyl)-2-methyl-6-(trifluoromethyl)pyrimidine-5-carboxamide], the pIC50 was 7.47. The same measure for `C/C(=N\Oc1ccnc(Cl)c1)c1cnc(C)nc1C1CCN(C(=O)Cc2c(F)cccc2F)CC1` [Compound B15, (E)-1-(4-(5-(1-(((2-chloropyridin-4-yl)oxy)imino)ethyl)-2-methylpyrimidin-4-yl)piperidin-1-yl)-2-(2,6-difluorophenyl)ethanone]: 8.29; for `Cc1ncc(C(C)(O)COc2cccnc2)c(C2CCN(C(=O)Cc3c(F)cccc3F)CC2)n1` (centres unmarked) [Compound D14, 2-(2,6-difluorophenyl)-1-(4-(5-(2-hydroxy-1-(pyridin-3-yloxy)propan-2-yl)-2-methylpyrimidin-4-yl)piperidin-1-yl)ethanone]: 6.32. The same measure for `C/C(=N/Oc1cc(Cl)nc(C(F)(F)F)c1)c1cnc(C)nc1C1CCN(C(=O)Nc2c(F)cccc2F)CC1` [Compound B41, 4-{5-[(1Z)—N-{[2-chloro-6-(trifluoromethyl)pyridin-4-yl]oxy}ethanimidoyl]-2-methylpyrimidin-4-yl}-N-(2,6-difluorophenyl)piperidine-1-carboxamide]: 7.90; for `COCC(C)(OCc1cc(C)cc(C)c1)c1cnc(C)nc1C1CCN(C(=O)Cc2c(F)cccc2F)CC1` (centres unmarked) [Compound E1, 2-(2,6-Difluorophenyl)-1-(4-(5-(2-(3,5-dimethylbenzyloxy)-1-methoxypropan-2-yl)-2-methylpyrimidin-4-yl)piperidin-1-yl)ethanone]: 8.20; for `CC(=O)NCCNCC(O)(COc1cccc(C(F)(F)F)n1)c1cnc(C)nc1C1CCN(C(=O)Nc2c(F)cccc2F)CC1` (centres unmarked) [Compound N38, 4-{5-[2-{[2-(Acetylamino)ethyl]amino}-1-hydroxy-1-({[6-(trifluoromethyl)pyridin-2-yl]oxy}methyl)ethyl]-2-methylpyrimidin-4-yl}-N-(2,6-difluorophenyl)piperidine-1-carboxamide]: 7.24. Under `Cc1ncc(C(C)(C)CNc2ccnc(C(F)(F)F)n2)c(C2CCN(C(=O)Cc3c(F)cccc3F)CC2)n1` [Compound F1, 2-(2,6-Difluorophenyl)-1-(4-(2-methyl-5-(2-methyl-1-(2-(trifluoromethyl)pyrimidin-4-ylamino)propan-2-yl)pyrimidin-4-yl)piperidin-1-yl)ethanone] stands 7.12; under `C/C(=N\Oc1cc(F)nc(F)c1)c1cnc(N)nc1C1CCN(C(=O)Nc2c(F)cccc2F)CC1` [Compound B56, 4-(2-Amino-5-{(1E)-N-[(2,6-difluoropyridin-4-yl)oxy]ethanimidoyl}pyrimidin-4-yl)-N-(2,6-difluorophenyl)piperidine-1-carboxamide], 7.50. Take `O=C(NCc1cccc(Cl)c1)c1cnc(C2CC2)nc1C1CCN(C(=O)Cc2c(F)cccc2F)CC1` [Compound A45, N-(3-chlorobenzyl)-2-cyclopropyl-4-(1-(2-(2,6-difluorophenyl)acetyl)piperidin-4-yl)pyrimidine-5-carboxamide]: the pIC50 is 8.22.

Regarding `C/C(=N\Oc1cccc(F)c1)c1cnc(C)nc1C1CCN(C(=O)Cc2c(F)cccc2F)CC1` [Compound B16, (E)-2-(2,6-difluorophenyl)-1-(4-(5-(1-((3-fluorophenoxy)imino)ethyl)-2-methylpyrimidin-4-yl)piperidin-1-yl)ethanone], the negative logarithm of the IC50 (pIC50) is 8.23. Under `Nc1ncc(C(=O)COc2ccnc(C(F)(F)F)n2)c(C2CCN(C(=O)Nc3c(F)cccc3F)CC2)n1` [Compound M6, 4-[2-Amino-5-({[2-(trifluoromethyl)pyrimidin-4-yl]oxy}acetyl)pyrimidin-4-yl]-N-(2,6-difluorophenyl)piperidine-1-carboxamide] stands 7.91; under `O=C(NNc1cccc(Cl)c1)c1cnc(C2CC2)nc1C1CCN(C(=O)Cc2c(F)cccc2F)CC1` [Compound G2, N′-(3-chlorophenyl)-2-cyclopropyl-4-(1-(2-(2,6-difluorophenyl)acetyl)piperidin-4-yl)pyrimidine-5-carbohydrazide], 8.34. Under `Cc1cc(C)cc(COC(C)(COC[C@H](O)CO)c2cnc(C)nc2C2CCN(C(=O)Cc3c(F)cccc3F)CC2)c1` (stereo in doubt) [Compound E8, 2-(2,6-Difluorophenyl)-1-(4-(5-(1-(2,3-dihydroxypropoxy)-2-(3,5-dimethylbenzyloxy)propan-2-yl)-2-methylpyrimidin-4-yl)piperidin-1-yl)ethanone] stands 8.39; under `COc1ccccc1OC(=O)N1CCC(c2nc(N)nc(C)c2-c2nnc(-c3ccnc(C(F)(F)F)n3)o2)CC1` [Compound C57, 2-(methyloxy)phenyl 4-(2-amino-6-methyl-5-{5-[2-(trifluoromethyl)pyrimidin-4-yl]-1,3,4-oxadiazol-2-yl}pyrimidin-4-yl)piperidine-1-carboxylate], 7.63; under `Cc1nc(C)c(-c2nnc(-c3ccnc(C(F)(F)F)n3)o2)c(C2CCN(C(=S)Nc3ccccc3C(F)(F)F)CC2)n1` [Compound C47, 4-(2,6-Dimethyl-5-{5-[2-(trifluoromethyl)pyrimidin-4-yl]-1,3,4-oxadiazol-2-yl}pyrimidin-4-yl)-N-[2-(trifluoromethyl)phenyl]piperidine-1-carbothioamide], 7.09. The same measure for `C/C(=N\Oc1cc(Cl)nc(C(F)(F)F)c1)c1cnc(N)nc1C1CCN(C(=O)Nc2c(F)cccc2F)CC1` [Compound B55, 4-{2-Amino-5-[(1E)-N-{[2-chloro-6-(trifluoromethyl)pyridin-4-yl]oxy}ethanimidoyl]pyrimidin-4-yl}-N-(2,6-difluorophenyl)piperidine-1-carboxamide]: 8.24; for `Cc1ncc(C2(C)CN(c3ccnc(C(F)(F)F)n3)C(=O)O2)c(C2CCN(C(=O)Cc3c(F)cccc3F)CC2)n1` (centres unmarked) [Compound N50, 5-(4-{1-[(2,6-Difluorophenyl)acetyl]piperidin-4-yl}-2-methylpyrimidin-5-yl)-5-methyl-3-[2-(trifluoromethyl)pyrimidin-4-yl]-1,3-oxazolidin-2-one]: 6.54.

As to `Cc1nc(NCc2ccnc(C(F)(F)F)c2)c(C(=O)NCc2ccnc(C(F)(F)F)c2)c(C2CCN(C(=O)Cc3c(F)cccc3F)CC2)n1` [Compound I2, 4-{1-[(2,6-Difluorophenyl)acetyl]piperidin-4-yl}-2-methyl-N-{[2-(trifluoromethyl)pyridin-4-yl]methyl}-6-({[2-(trifluoromethyl)pyridin-4-yl]methyl}amino)pyrimidine-5-carboxamide], the pIC50 is 7.15. Under `Cc1cc(C)cc(CNC(=O)c2cnc(C)nc2C2CCN(C(=O)Cc3ccc(F)cc3)CC2)c1` [Compound A29, N-(3,5-dimethylbenzyl)-4-(1-(2-(4-fluorophenyl)acetyl)piperidin-4-yl)-2-methylpyrimidine-5-carboxamide] stands 5.96. `Cc1nc(C)c(-c2nnc(-c3ccnc(C(F)(F)F)n3)o2)c(C2CCN(C(=O)C(F)(F)c3c(F)cccc3F)CC2)n1` [Compound C43, 4-{1-[(2,6-difluorophenyl)(difluoro)acetyl]piperidin-4-yl}-2,6-dimethyl-5-{5-[2-(trifluoromethyl)pyrimidin-4-yl]-1,3,4-oxadiazol-2-yl}pyrimidine]: the negative-log IC50 (pIC50) was 7.95. Under `Cc1cc(C)cc(COC(C)(COCC(O)CO)c2cnc(C)nc2C2CCN(C(=O)Cc3c(F)cccc3F)CC2)c1` (centres unmarked) [Compound E3, 2-(2,6-difluorophenyl)-1-(4-(5-(1-(2,3-dihydroxypropoxy)-2-((3,5-dimethylbenzyl)oxy)propan-2-yl)-2-methylpyrimidin-4-yl)piperidin-1-yl)ethanone] stands 8.21; under `C/C(=N\Oc1cccc(Cl)c1)c1cnc(C)nc1C1CCN(C(=O)Cc2c(F)cccc2F)CC1` [Compound B5, (E)-1-(4-(5-(1-((3-chlorophenoxy)imino)ethyl)-2-methylpyrimidin-4-yl)piperidin-1-yl)-2-(2,6-difluorophenyl)ethanone], 8.60. Consider `Cc1nc(C)c(-c2nc(Cc3ccc(F)cc3)no2)c(C2CCN(C(=O)Cc3c(F)cccc3F)CC2)n1` [Compound C3, 2-(2,6-difluorophenyl)-1-(4-(5-(3-(4-fluorobenzyl)-1,2,4-oxadiazol-5-yl)-2,6-dimethylpyrimidin-4-yl)piperidin-1-yl)ethanone], for which the pIC50 is 6.22. Under `Cc1cc(C(F)(F)F)nc(CNC(=O)c2cnc(C)nc2C2CCN(C(=O)Cc3c(F)cccc3F)CC2)n1` [Compound A67, 4-(1-(2-(2,6-difluorophenyl)acetyl)piperidin-4-yl)-2-methyl-N-((4-methyl-6-(trifluoromethyl)pyrimidin-2-yl)methyl)pyrimidine-5-carboxamide] stands 7.07; under `COc1ncc(C(O)COc2cccc(C(F)(F)F)n2)c(C2CCN(C(=O)Nc3c(F)cccc3F)CC2)n1` (centres unmarked) [Compound N4, N-(2,6-Difluorophenyl)-4-[5-(1-hydroxy-2-{[6-(trifluoromethyl)pyridin-2-yl]oxy}ethyl)-2-(methyloxy)pyrimidin-4-yl]piperidine-1-carboxamide], 7.92.
